Data taken from ChEMBL document CHEMBL4229562, “Introduction of a Methyl Group Curbs Metabolism of Pyrido[3,4- d]pyrimidine Monopolar Spindle 1 (MPS1) Inhibitors and Enables the Discovery of the Phase 1 Clinical Candidate N2-(2-Ethoxy-4-(4-methyl-4 H-1,2,4-triazol-3-yl)phenyl)-6-methyl- N8-neopentylpyrido[3,4- d]pyrimidine-2,8-diamine …” (J Med Chem, 2018).
Converted amounts (≈) assume the structure as drawn.

What was measured:
[1] = Intrinsic clearance in CD1 mouse liver microsomes assessed per mg protein at 1 uM preincubated for 10 mins followed NADPH/UDP-glucuronic acid addition and measured after 30 mins by LC-MS/MS analysis; assay type: ADME, microsome; conditions: 0.5 h
[2] = Dissociation constant, pKa of the compound; assay type: physicochemical
Rattus norvegicus [3] = assay: Half life in rat at 2.5 mg/kg, iv by ESI-LCMS/MS analysis; assay type: ADME, organism-based; conditions: in vivo
[4] = Clearance in rat at 2.5 mg/kg, iv by ESI-LCMS/MS analysis; assay type: ADME, organism-based; conditions: in vivo
[5] = target: Mitogen-activated protein kinase 9 (Homo sapiens, UniProt P45984); assay: Inhibition of recombinant human full length His-tagged JNK2 expressed in baculovirus expression system by Z'-LYTE assay
CDK2/Cyclin A2 = CDK2/Cyclin A2 (Homo sapiens, UniProt P24941)
[6] = Clearance in mouse at 5 mg/kg, iv by ESI-LCMS/MS analysis; assay type: ADME, organism-based; conditions: in vivo
[7] = Volume of distribution at steady state in rat at 2.5 mg/kg, iv by ESI-LCMS/MS analysis; assay type: ADME, organism-based; conditions: in vivo, read-out: Vdss
Mus musculus [8] = assay: Half life in mouse at 5 mg/kg, iv by ESI-LCMS/MS analysis; assay type: ADME, organism-based; conditions: in vivo
Mus musculus [9] = assay: Oral bioavailability in mouse at 5 mg/kg by ESI-LCMS/MS analysis; assay type: ADME, organism-based; conditions: in vivo
[10] = AUClast in rat at 5 mg/kg, po measured after 24 hrs by ESI-LCMS/MS analysis; assay type: ADME, organism-based; conditions: in vivo
[11] = target: T1, Dual specificity protein kinase TTK (Homo sapiens, UniProt P33981)
T1 sequence (P33981 whole entry): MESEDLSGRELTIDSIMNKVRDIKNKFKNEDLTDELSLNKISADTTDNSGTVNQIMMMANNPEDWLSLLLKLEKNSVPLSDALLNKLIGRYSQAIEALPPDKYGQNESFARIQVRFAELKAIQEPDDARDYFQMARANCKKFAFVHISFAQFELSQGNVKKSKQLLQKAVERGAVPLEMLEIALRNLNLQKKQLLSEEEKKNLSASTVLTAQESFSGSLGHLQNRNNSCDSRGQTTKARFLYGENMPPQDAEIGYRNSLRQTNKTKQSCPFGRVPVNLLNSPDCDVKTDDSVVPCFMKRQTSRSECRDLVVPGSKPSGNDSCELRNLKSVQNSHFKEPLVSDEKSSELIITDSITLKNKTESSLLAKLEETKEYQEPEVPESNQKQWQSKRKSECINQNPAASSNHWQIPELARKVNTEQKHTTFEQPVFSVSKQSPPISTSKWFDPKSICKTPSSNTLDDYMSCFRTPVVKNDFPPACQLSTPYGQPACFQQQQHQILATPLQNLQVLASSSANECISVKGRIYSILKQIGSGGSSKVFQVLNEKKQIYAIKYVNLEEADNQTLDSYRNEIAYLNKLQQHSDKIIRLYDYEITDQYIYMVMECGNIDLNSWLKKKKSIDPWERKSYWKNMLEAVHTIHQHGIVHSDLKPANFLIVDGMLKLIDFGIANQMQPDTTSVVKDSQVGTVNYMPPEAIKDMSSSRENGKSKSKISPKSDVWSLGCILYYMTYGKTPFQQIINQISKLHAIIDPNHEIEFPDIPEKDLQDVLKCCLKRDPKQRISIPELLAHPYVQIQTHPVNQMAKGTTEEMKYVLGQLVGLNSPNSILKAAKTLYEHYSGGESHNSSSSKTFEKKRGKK
Description: Inhibition of full length human N-terminal 6xHis-tagged MPS1 expressed in baculovirus expression system using 5FAM-H236 peptide as substrate after 60 to 90 mins by caliper assay

[12] = Solubility of the compound in PBS buffer at pH 7.4 by HPLC analysis; assay type: physicochemical
[13] = AUClast in mouse at 5 mg/kg, po measured after 6 hrs by ESI-LCMS/MS analysis; assay type: ADME, organism-based; conditions: in vivo
[14] = Cmax in mouse at 5 mg/kg, po by ESI-LCMS/MS analysis; assay type: ADME, organism-based; set-up: dose 5 mg/kg, route oral; conditions: in vivo
[15] = Cmax in rat at 5 mg/kg, po by ESI-LCMS/MS analysis; assay type: ADME, organism-based; set-up: dose 5 mg/kg, route oral; conditions: in vivo
[16] = target: Mitogen-activated protein kinase 10 (Homo sapiens, UniProt P53779); assay: Inhibition of recombinant human full length N-terminal GST-tagged JNK3 expressed in baculovirus expression system by Z'-LYTE assay
[17] = target: Leucine-rich repeat serine/threonine-protein kinase 2 (Homo sapiens, UniProt Q5S007); assay: Inhibition of recombinant human GST-tagged LRRK2 (970 to 2527 residues) expressed in baculovirus expression system by Z'-LYTE assay
Rattus norvegicus [18] = assay: Oral bioavailability in rat at 5 mg/kg by ESI-LCMS/MS analysis; assay type: ADME, organism-based; conditions: in vivo
[19] = Intrinsic clearance in human liver microsomes assessed per mg protein at 1 uM preincubated for 10 mins followed NADPH/UDP-glucuronic acid addition and measured after 30 mins by LC-MS/MS analysis; assay type: ADME, microsome; conditions: 0.5 h
[20] = Volume of distribution at steady state in mouse at 5 mg/kg, iv by ESI-LCMS/MS analysis; assay type: ADME, organism-based; conditions: in vivo, read-out: Vdss
[21] = target: Mitogen-activated protein kinase 8 (Homo sapiens, UniProt P45983); assay: Inhibition of recombinant human full length His-tagged JNK1 expressed in baculovirus expression system by Z'-LYTE assay
[22] = target: T1, Dual specificity protein kinase TTK; remark: listed apart in the source
Description: Inhibition of MPS1 autophosphorylation at Thr33/Ser37 in human HCT116 cells after 2 hrs by MSD assay

[23] = Lipophilicity, log P of the compound; assay type: physicochemical; conditions: octanol/water
[24] = Protein binding in mouse plasma; assay type: ADME, cell-free

Mitogen-activated protein kinase 9, sequence (P45984 whole entry): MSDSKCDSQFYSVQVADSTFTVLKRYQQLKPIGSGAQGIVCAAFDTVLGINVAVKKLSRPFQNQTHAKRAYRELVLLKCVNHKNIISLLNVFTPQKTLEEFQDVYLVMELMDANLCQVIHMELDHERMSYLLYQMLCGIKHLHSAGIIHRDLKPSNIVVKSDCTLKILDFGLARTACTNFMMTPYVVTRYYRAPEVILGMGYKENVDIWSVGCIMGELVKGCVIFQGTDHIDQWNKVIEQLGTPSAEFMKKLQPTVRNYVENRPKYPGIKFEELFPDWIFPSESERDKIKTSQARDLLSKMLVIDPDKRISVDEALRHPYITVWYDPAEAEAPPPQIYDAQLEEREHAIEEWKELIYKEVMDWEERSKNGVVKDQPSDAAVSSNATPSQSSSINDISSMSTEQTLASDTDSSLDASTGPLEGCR
Mitogen-activated protein kinase 10, sequence (P53779 whole entry, the tested form may be a part): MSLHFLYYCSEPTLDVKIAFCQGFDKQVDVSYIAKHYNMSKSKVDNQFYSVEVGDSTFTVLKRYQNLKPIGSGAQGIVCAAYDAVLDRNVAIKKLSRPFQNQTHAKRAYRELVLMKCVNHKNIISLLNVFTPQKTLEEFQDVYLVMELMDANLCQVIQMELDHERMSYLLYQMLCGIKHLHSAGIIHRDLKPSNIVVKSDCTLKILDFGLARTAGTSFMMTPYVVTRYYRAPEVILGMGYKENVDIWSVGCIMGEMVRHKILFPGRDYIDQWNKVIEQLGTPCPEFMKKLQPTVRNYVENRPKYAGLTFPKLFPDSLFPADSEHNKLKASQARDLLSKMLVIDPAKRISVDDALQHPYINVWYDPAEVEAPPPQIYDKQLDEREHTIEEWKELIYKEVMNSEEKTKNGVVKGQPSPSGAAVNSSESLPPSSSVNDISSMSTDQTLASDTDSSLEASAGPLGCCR
Mitogen-activated protein kinase 8, sequence (P45983 whole entry): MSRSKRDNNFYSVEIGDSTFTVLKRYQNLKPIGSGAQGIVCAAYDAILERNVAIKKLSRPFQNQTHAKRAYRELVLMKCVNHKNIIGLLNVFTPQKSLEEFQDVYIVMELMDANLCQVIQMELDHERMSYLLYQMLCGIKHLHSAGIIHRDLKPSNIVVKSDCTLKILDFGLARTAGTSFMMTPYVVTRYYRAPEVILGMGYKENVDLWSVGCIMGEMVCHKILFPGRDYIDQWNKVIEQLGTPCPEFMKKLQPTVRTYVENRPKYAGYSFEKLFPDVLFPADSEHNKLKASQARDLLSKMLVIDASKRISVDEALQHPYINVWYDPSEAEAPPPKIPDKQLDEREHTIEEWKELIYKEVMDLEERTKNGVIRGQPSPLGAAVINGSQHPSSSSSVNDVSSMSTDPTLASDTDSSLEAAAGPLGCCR
Leucine-rich repeat serine/threonine-protein kinase 2, sequence (Q5S007 whole entry, the tested form may be a part): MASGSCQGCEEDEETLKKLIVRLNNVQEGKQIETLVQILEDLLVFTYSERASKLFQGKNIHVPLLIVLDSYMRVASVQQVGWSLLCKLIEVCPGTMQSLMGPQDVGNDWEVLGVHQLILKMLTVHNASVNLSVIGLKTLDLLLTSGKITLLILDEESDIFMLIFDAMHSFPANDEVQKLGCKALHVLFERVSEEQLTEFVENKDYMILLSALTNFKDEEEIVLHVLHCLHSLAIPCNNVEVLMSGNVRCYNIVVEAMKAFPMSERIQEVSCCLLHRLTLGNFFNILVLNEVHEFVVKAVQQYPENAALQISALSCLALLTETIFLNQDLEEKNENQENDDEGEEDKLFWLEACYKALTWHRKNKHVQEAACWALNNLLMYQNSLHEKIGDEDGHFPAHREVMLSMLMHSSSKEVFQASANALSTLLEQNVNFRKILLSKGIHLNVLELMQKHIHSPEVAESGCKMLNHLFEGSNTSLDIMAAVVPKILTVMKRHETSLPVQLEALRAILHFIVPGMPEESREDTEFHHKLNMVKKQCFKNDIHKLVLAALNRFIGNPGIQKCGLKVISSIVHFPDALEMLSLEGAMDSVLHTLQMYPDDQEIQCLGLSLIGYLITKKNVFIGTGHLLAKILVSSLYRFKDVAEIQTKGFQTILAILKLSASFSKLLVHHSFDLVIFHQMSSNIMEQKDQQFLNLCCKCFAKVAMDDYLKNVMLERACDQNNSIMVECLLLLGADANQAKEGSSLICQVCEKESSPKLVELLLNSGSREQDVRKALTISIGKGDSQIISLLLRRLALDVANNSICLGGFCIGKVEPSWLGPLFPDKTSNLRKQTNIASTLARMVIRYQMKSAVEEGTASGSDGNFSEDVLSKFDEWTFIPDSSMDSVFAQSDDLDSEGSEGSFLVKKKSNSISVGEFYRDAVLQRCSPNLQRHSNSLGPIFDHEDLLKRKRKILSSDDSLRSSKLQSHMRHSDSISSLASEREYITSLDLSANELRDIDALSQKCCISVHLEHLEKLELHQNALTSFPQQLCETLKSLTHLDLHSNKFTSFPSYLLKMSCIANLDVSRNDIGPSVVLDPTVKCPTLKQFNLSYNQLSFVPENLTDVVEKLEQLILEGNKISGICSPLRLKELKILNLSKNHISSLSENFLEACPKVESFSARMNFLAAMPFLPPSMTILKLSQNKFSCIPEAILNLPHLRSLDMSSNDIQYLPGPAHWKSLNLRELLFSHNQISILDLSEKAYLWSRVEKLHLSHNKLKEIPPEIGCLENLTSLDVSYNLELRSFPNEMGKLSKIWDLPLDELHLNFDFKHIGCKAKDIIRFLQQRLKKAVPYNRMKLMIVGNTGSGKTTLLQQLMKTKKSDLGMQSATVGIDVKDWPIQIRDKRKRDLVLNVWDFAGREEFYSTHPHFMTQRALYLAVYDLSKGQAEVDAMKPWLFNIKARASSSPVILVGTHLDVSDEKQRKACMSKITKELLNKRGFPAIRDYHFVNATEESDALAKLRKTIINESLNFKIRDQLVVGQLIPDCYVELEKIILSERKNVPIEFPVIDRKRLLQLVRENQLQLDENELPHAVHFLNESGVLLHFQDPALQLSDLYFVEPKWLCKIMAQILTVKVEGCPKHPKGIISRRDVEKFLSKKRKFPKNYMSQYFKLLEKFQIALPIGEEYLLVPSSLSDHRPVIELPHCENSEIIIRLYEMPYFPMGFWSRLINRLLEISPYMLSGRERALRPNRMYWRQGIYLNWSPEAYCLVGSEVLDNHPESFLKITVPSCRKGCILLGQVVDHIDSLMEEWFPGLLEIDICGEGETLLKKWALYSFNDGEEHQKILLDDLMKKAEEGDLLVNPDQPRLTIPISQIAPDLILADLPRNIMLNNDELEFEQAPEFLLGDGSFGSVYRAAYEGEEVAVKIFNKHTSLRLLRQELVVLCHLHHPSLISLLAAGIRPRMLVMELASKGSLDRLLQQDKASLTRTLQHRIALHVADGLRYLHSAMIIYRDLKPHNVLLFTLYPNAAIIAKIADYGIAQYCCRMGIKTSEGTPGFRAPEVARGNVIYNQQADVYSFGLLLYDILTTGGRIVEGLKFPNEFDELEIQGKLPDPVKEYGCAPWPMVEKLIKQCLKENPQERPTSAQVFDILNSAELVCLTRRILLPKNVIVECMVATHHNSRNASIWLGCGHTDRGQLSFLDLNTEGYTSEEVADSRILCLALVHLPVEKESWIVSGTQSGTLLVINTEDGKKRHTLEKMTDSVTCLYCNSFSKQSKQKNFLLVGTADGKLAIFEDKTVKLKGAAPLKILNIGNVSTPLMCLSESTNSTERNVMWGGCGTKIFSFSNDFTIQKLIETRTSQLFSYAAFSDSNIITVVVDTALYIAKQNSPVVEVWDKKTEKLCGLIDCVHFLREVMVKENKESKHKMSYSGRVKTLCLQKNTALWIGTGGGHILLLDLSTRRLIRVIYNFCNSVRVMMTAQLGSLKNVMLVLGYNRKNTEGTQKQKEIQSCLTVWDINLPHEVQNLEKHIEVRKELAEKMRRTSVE

CCOc1cc(-c2nncn2C)ccc1Nc1ncc2cc(C)nc(NCC(C)(C)C)c2n1 [BOS-172722]
CLH [1]: 26.3 µL/min/mg
pKa [2]: 2.63 to 6.22
t1/2 (Rattus norvegicus [3]): 4.66 h
clearance [4]: 10.1 mL/min/kg
IC50 [5]: 76 nM
IC50 (CDK2/Cyclin A2): 1020 nM
Ki (CDK2/Cyclin A2): 510 nM
clearance [6]: 10.9 mL/min/kg
Vd [7]: 3.52 L/kg
t1/2 (Mus musculus [8]): 2.68 h
F (Mus musculus [9]): 81%
AUC(0-t) at 24 h [10]: 11.3 µM·h
IC50 [11]: 11 nM
Ki [11]: 0.11 nM
solubility [12]: 6.6 µM (≈ 2.95 µg/mL)
AUC(0-t) at 6 h [13]: 11 µM·h
Cmax [14]: 2760 nM
Cmax [15]: 813 nM
IC50 [16]: 242 nM
IC50 [17]: 48 nM
F (Rattus norvegicus [18]): 63%
CLH [19]: 8 µL/min/mg
Vd [20]: 2.46 L/kg
IC50 [21]: 92 nM
IC50 [22]: 63 nM
logP [23]: 4.23
PPB [24]: 99.85%
